Experiments:
GSK-3 = format: biochemical; settings: read-out: IC50 GSK-3 inhibition
[1] = tested on: Tau phosphorylation in primary cultured cerebellar neurones; assay: cells; format: cell-based; settings: Rattus norvegicus, 16 h, read-out: IC50 Tau phosphorylation inhibition in neurones measured by Tau-1 immunoreactivity

Structure (SMILES) | IC50 (GSK-3) | IC50 [1] | melting point
O=C(CCl)c1c(Br)sc(Cl)c1Cl [Compound 1, 1-(2-Bromo-4,5-dichloro-thiophen-3-yl)-2-chloro-ethanone] | 2000 nM | 30000 nM | –
O=C(CCl)c1cc(Cl)c(Cl)s1 [Compound 2, 2-Chloro-1-(4,5-dichloro-thiophen-2-yl)-ethanone] | 2500 nM | – | –
O=C(CCl)c1cc(Br)cs1 [Compound 3, 1-(4-Bromo-thiophen-2-yl)-2-chloro-ethanone] | 3000 nM | – | –
O=C(CCl)c1cscc1Cl [Compound 4, 2-Chloro-1-(4-chloro-thiophen-3-yl)-ethanone] | 25000 nM | – | –
O=C(CCl)c1c(Br)sc(Br)c1Br [Compound 5, 2-Chloro-1-(2 4,5-tribromo-thiophen-3-yl) -ethanone] | 1000 nM | 30000 nM | –
O=C(CCl)c1cc(Cl)sc1Cl [Compound 6, 2-Chloro-1-(2,5-dichloro-thiophen-3-yl)-ethanone] | 5000 nM | – | 43 to 44 °C
O=C(CCl)c1ccc(Br)s1 [Compound 8, 1-(5-Bromo-thiophen-2-yl)-2-chloro-ethanone] | 10000 nM | – | –
O=C(CCl)c1csc(C(=O)CCl)c1 [Compound 9, 2-Chloro-1-[4-(2-chloro-acetyl)-thiophen-2-yl]-ethanone] | 1500 nM | – | 154 to 155 °C
O=C(CCl)c1cccs1 [Compound 10, 2-Chloro-1-thiophen-2-yl-ethanone] | 50000 nM | – | –
Cc1sc(C(=O)CCl)cc1C(=O)CCl [Compound 11, 2-Chloro-1-[4-(2-chloro-acetyl)-5-methyl-thiophen-2-yl]-ethanone] | 5000 nM | – | –
O=C(CCl)c1cc(Br)c(Br)s1 [Compound 14, 2-Chloro-1-(4,5-dibromo-thiophen-2-yl)-ethanone] | 1000 nM | – | –
O=C(CCl)c1scc(Br)c1Br [Compound 15, 2-Chloro-1-(3,4-dibromo-thiophen-2-yl)-ethanone] | 500 nM | – | 86 to 88 °C
Cc1c(C(=O)CCl)csc1C(=O)CCl [Compound 16, 2-Chloro-1-[5-(2-chloro-acetyl)-4-methyl-thiophen-3-yl]-ethanone] | 2500 nM | – | 155 to 156 °C
Cc1ccsc1C(=O)CCl [Compound 18, 2-chloro-1-(3-methyl-thiophen-2-yl)-ethanone] | 75000 nM | – | –
CC(=O)c1ccc(C(=O)CCl)s1 [Compound 19, 1-(5-Acetyl-thiophen-2-yl)-2-chloro-ethanone] | 50000 nM | – | –
CC(=O)c1csc(C(=O)CCl)c1 [Compound 20, 1-(4-Acetyl-thiophen-2-yl)-2-chloro-ethanone] | 8000 nM | – | 118 to 119 °C

Structure (SMILES) | IC50 (GSK-3) | IC50 [1] | melting point
O=C(CBr)c1scc(Br)c1Br [Compound 21, 2-Bromo-1-(3,4-dibromo-thiophen-2-yl)-ethanone] | 1000 nM | – | –
O=C(CBr)c1cc(Br)c(Br)s1 [Compound 22, 2-Bromo-1-(4,5-dibromo-thiophen-2-yl)-ethanone] | 1000 nM | – | –
O=C(CBr)c1ccc(Br)s1 [Compound 23, 2-Bromo-1-(5-bromo-thiophen-2-yl)-ethanone] | 1000 nM | – | –
O=C(CCl)c1ccc(Cl)cc1 [Compound 24, 2-Chloro-1-(4-chloro-phenyl)-ethanone] | 2500 nM | – | –
O=C(CCl)c1ccccc1 [Compound 25, 2-Chloro-1-phenyl-ethanone] | 50000 nM | – | –
O=C(CBr)c1ccc(Br)c(Br)c1 [Compound 27, 2-Bromo-1-(3,4-dibromo-phenyl)-ethanone] | 750 nM | – | 60 to 61 °C
O=C(CBr)c1ccc(Br)cc1 [Compound 28, 2-Bromo-1-(4-bromo-phenyl)-ethanone] | 500 nM | – | –
O=C(CBr)c1ccccc1 [Compound 30, 2-Bromo-1-phenyl-ethanone] | 5000 nM | – | –
O=C(CBr)c1ccc(-c2ccccc2)cc1 [Compound 33, 1-Biphenyl-4-yl-2-bromo-ethanone] | 2500 nM | – | –
N#Cc1ccc(C(=O)C(Br)Br)cc1 [Compound 39, 4-(2,2-Dibromo-acetyl)-benzonitrile] | 1500 nM | – | –
O=C(CBr)c1ccc(C(F)(F)F)cc1 [Compound 40, 2-Bromo-1-(4-trifluoromethyl-phenyl)-ethanone] | 5000 nM | – | –
O=C(c1ccc(C(F)(F)F)cc1)C(Br)Br [Compound 41, 2,2-Dibromo-1-(4-trifluoromethyl-phenyl)-ethanone] | 5000 nM | – | 40 to 41 °C
O=C(CBr)c1ccc(N2CCOCC2)cc1 [Compound 42, 2-Bromo-1-(4-morpholin-4-yl-phenyl)-ethanone] | 6000 nM | – | –
N#Cc1cccc(C(=O)C(Br)Br)c1 [Compound 44, 3-(2,2-Dibromo-acetyl)-benzonitrile] | 1000 nM | – | –
O=C(c1ccc(I)cc1)C(Br)Br [Compound 45, 2,2 -Dibromo-1-(4-iodo-phenyl)-ethanone] | 2000 nM | – | 77 to 78 °C
Nc1c(Br)cc(C(=O)CBr)cc1Br [Compound 47, 1-(4-Amino-3,5-dibromo-phenyl)-2-bromo-ethanone] | 3000 nM | – | 146 to 147 °C
